What was measured:
[1] = tested on: X. autotrophicus; conditions: read-out: half maximum inhibitory concentration (IC50)
[2] = molecular target: nitrogenase; conditions: competitive inhibition of nitrogenase; cited from earlier work
[3] = tested on: glutamine synthetase (GS); test: NH3 secretion in the hybrid device after addition of GS inhibitor; assay type: cell-based, X. autotrophicus; conditions: 50 μM inhibitor
Protocol: Eappl is defined as the voltage difference between the working (OER) and counter/reference (HER) electrodes in a two-electrode configuration. After inoculation with X. autotrophicus (initial OD600=0.2), the reactor was purged with the gas mixture at a flow rate between 5 to 20 mL min^−1. These electrochemical cells were stirred at 350 rpm to facilitate mass transport and were immersed in a 30° C. water bath. The electrolyte was sampled every 12 or 24 hr to quantify OD600 and N accumulation. For time points in which […] (GS) inhibitor phosphinothricin (PPT) was added with final concentration of 50 μM, aliquots were sampled prior to inhibitor addition. The reported data are based on at least three biological replicates (n≥3).
Ntotal was determined from sampled aliquots after persulfate digestion and based on the absorption of oxidized phenol under acidic conditions (Hach Company 2672245). Nsoluble was determined similarly as Ntotal, except that the supernatants after 10,000 rpm centrifugation were digested in persulfate and subsequently analyzed. NH3 was also determined from the supernatants after centrifugation, but based on the salicylate method that is selective to ammonia (Hach Company TNT830). […] For each category of nitrogen content, the nitrogen concentrations were determined by comparing the solution absorbance with those in standard curves. When PPT was added to induce NH3 secretion, the measured nitrogen concentrations presented in FIG. 5B and Table 3 was subtracted from the nitrogen in PPT (2 nitrogen atoms per each PPT molecule for Ntotal, and 1 nitrogen atom per each PPT for NH3). The PPT nitrogen content was also subtracted when calculating ηelec, NRR in Table 1.

## [Co+2] [Co2+]
[1]
  IC50: ~50 µM

## [HH] [H2, hydrogen]
[2]
  inhibition constant Ki(D2): ~11 kPa

## CP(=O)(O)CC[C@H](N)C(=O)O [PPT, phosphinothricin]
[3]
  biomass of X. autotrophicus after inhibitor addition: stagnated
[3]; Eappl=3.0 V
  concentration of NNH3 at end of experiment: ~0.8 mM
[3]; Eappl=3.0 V, n=3
  accumulated Ntotal: 47 ± 3 mg/L
  concentration of N in free NH3 in the solution (NNH3) at end of experiment: 11 ± 2 mg/L
[3]; listed as phosphinothricin
  biomass of X. autotrophicus after inhibitor addition: slows

From patent US20200102254A1, “BIOFERTILIZER AND METHODS OF MAKING AND USING SAME” (President and Fellows of Harvard College, priority 2017, published 2020)
